Source: US6881741B2 (ViroChem Pharma Inc., priority 2001, dated 2005)
Where two headings read alike, the source gives them in different places.

Target: recombinant HCV NS5B (HCV RNA-dependent RNA polymerase) (Hepatitis C virus genotype 1b, UniProt P26663)
Test: biochemical
[1] = related polymerase activity (Example 27 list), read-out: IC50
[2] = HCV polymerase activity, list of compounds of Example 27, read-out: IC50 (polymerase activity)

Sequence of recombinant HCV NS5B (HCV RNA-dependent RNA polymerase) (P26663 2420-3010 limits assumed): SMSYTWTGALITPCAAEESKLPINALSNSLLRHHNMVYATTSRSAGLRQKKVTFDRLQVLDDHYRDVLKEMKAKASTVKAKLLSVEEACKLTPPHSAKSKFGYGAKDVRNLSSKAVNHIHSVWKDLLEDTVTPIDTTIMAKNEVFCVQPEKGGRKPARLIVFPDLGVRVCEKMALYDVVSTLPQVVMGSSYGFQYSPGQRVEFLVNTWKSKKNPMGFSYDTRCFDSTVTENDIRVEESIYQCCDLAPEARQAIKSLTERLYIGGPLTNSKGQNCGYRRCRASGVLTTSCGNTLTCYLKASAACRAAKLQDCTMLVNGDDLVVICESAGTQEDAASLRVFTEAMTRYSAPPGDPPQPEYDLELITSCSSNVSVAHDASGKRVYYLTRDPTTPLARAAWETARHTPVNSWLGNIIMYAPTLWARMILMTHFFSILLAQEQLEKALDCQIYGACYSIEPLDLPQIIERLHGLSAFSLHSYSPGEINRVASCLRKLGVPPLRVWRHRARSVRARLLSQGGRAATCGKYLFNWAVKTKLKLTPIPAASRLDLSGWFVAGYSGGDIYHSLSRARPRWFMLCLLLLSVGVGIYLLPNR

Structure (SMILES)	IC50 [1] [µM]	IC50 [2] [µM]
C=CCCC(=O)N(C)c1cc(-c2ccccc2)sc1C(=O)O [Compound 386, 3-(METHYL-PENT-4-ENOYL-AMINO)-5- PHENYL-THIOPHENE-2-CARBOXYLIC ACID]	5 to 20	–
Cc1ccc(C(=O)N(C)c2cc(-c3ccc(CO)cc3)sc2C(=O)O)cc1 [Compound 195, 5-(4-HYDROXYMETHYL-PHENYL)-3-[METHYL-(4-METHYL-BENZOYL)-AMINO]-THIOPHENE-2-CARBOXYLIC ACID]	5 to 20	–
C=CCN(C(=O)c1ccc(C)cc1)c1cc(-c2cccc(/C=C/C(=O)O)c2)sc1C(=O)O [Compound 323, 3-[ALLYL-(4-METHYL-BENZOYL)-AMINO]- 5-[3-(2-CARBOXY-VINYL)-PHENYL]- THIOPHENE-2-CARBOXYLIC ACID]	5 to 20	–
CC(=O)N(Cc1cccc(C)c1)c1cc(-c2ccccc2)sc1C(=O)O [Compound 434, 3-[ACETYL-(3-METHYL-BENZYL)-AMINO]- 5-PHENYL-THIOPHENE-2-CARBOXYLIC ACID]	–	5 to 20
N#Cc1ccccc1-c1ccc(CN(C(=O)c2ccc(Cl)cc2Cl)c2cc(-c3ccccc3)sc2C(=O)O)s1 [Compound 132, 3-[[(5-(2-CYANO-PHENYL)-THIOPHEN-2-YLMETHYL]-(2,4-DICHLORO-BENZOYL)-AMINO]-5-PHENYL-THIOPHENE-2-CARBOXYLIC ACID]	< 5	–
CC(=O)N(Cc1ccccc1)c1cc(-c2ccccc2)sc1C(=O)O [Compound 450, 3-(ACETYL-BENZYL-AMINO)-5-PHENYL- THIOPHENE-2-CARBOXYLIC ACID]	–	< 5
Cc1csc(C(=O)N(C)c2cc(-c3ccccc3)sc2C(=O)O)c1 [Compound 293, 3-[METHYL-(4-METHYL-THIOPHENE-2-CARBONYL)-AMINO]-5-PHENYL-THIOPHENE-2-CARBOXYLIC ACID]	5 to 20	–
CC1CCC(C(=O)N(C)c2cc(-c3ccccc3)sc2C(=O)O)CC1 (stereo not shown) [Compound 286, 3-[METHYL-(4-METHYL-CYCLOHEXANECARBONYL)-AMINO]-5-PHENYL THIOPHENE-2-CARBOXYLIC ACID]	< 5	–
CC(C)N(C(=O)c1ccc(Cl)cc1Cl)c1cc(-c2cccc(C(F)(F)F)c2)sc1C(=O)O [Compound 359, 3-[(2,4-DICHLORO-BENZOYL)- ISOPROPYL-AMINO]-5-(3- TRIFLUOROMETHYL-PHENYL)- THIOPHENE-2-CARBOXYLIC ACID]	< 5	–
Cc1ccccc1S(=O)(=O)Nc1cc(-c2ccc(Cl)cn2)sc1C(=O)O [Compound 191, 5-(5-CHLORO-PYRIDIN-2-YL)-3-(TOLUENE-2-SULFONYLAMINO)-THIOPHENE-2-CARBOXYLIC ACID]	< 5	–
CC(C)N(C(=O)c1ccccc1Cl)c1cc(-c2ccccc2)sc1C(=O)O [Compound 218, 3-[(2-CHLORO-BENZOYL)-ISOPROPYL-AMINO]-5-PHENYL-THIOPHENE-2-CARBOXYLIC ACID]	5 to 20	–
CC(=O)c1ccc(S(=O)(=O)Nc2cc(-c3ccccc3)sc2C(=O)O)cc1 [Compound 140, 3-(4-ACETYL-BENZENESULFONYLAMINO)-5-PHENYL-THIOPHENE-2-CARBOXYLIC ACID]	5 to 20	–
Cc1ccccc1S(=O)(=O)Nc1cc(-c2cnn(S(=O)(=O)N(C)C)c2)sc1C(=O)O [Compound 163, 5-(1-DIMETHYLSULFAMOYL-1H-PYRAZOL-4-YL)-3-(TOLUENE-2-SULFONYLAMINO)-THIOPHENE-2-CARBOXYLIC ACID]	5 to 20	–
CCCC(=O)N(Cc1cccc(C)c1)c1cc(-c2ccccc2)sc1C(=O)O [Compound 446, 3-[BUTYRYL-(3-METHYL-BENZYL)- AMINO]-5-PHENYL-THIOPHENE-2- CARBOXYLIC ACID]	–	5 to 20
O=C(O)c1sc(-c2ccccc2)cc1N(C(=O)c1ccc(Cl)cc1Cl)C1CCC(C(=O)O)C1 (stereo not shown) [Compound 548, 3-[(3-CARBOXY-CYCLOPENTYL)-(2,4- DICHLORO-BENZOYL)-AMINO]-5- PHENYL-THIOPHENE-2-CARBOXYLIC ACID]	–	< 5
Cc1ccc(C(=O)N(C)c2cc(-c3ccccc3Cl)sc2C(=O)O)cc1 [Compound 207, 5-(2-CHLORO-PHENYL)-3-[METHYL-(4-METHYL-BENZOYL)-AMINO]-THIOPHENE-2-CARBOXYLIC ACID]	5 to 20	–
Cc1ccccc1S(=O)(=O)Nc1cc(-c2ccccc2C(=O)O)sc1C(=O)O [Compound 115, 5-(2-CARBOXY-PHENYL)-3-(TOLUENE-2-SULFONYLAMINO)-THIOPHENE-2-CARBOXYLIC ACID]	5 to 20	–
CN(C(=O)c1ccc(Cl)cc1)c1cc(-c2ccccc2)sc1C(=O)O [Compound 73, 3-[(4-CHLORO-BENZOYL)-METHYL-AMINO]-5-PHENYL-THIOPHENE-2-CARBOXYLIC ACID]	< 5	–
CC1CCC(C(=O)N(c2cc(-c3ccccc3)sc2C(=O)O)C(C)C)C(=O)C1 (stereo not shown) [Compound 513, 3-[ISOPROPYL-(4-METHYL-2-OXO- CYCLOHEXANECARBONYL)-AMINO]-5- PHENYL-THIOPHENE-2-CARBOXYLIC ACID]	–	< 5
Cc1ccc(C(=O)N(C)c2cc(-c3ccc(O)cc3)sc2C(=O)O)cc1 [Compound 215, 5-(4-HYDROXY-PHENYL)-3-[METHYL-(4-METHYL-BENZOYL)-AMINO]-THIOPHENE-2-CARBOXYLIC ACID]	< 5	–

Structure (SMILES)	IC50 [1] [µM]	IC50 [2] [µM]
Cc1cc(S(=O)(=O)Nc2cc(-c3ccc(F)cc3)sc2C(=O)O)c(C)cc1Cl [Compound 8, 3-(4-CHLORO-2,5-DIMETHYL-BENZENESULFONYLAMINO)-5-(4-FLUORO-PHENYL)-THIOPHENE-2-CARBOXYLIC ACID]	< 5	–
Cc1ccccc1S(=O)(=O)Nc1cc(-c2ccc(Cl)cc2Cl)sc1C(=O)O [Compound 58, 5-(2,4-DICHLORO-PHENYL)-3-(TOLUENE-2-SULFONYLAMINO)-THIOPHENE-2-CARBOXYLIC ACID]	5 to 20	–
CC[NH+](CC)c1ncc(CN(C(=O)c2ccc(Cl)cc2Cl)c2cc(-c3ccccc3)sc2C(=O)O)s1 [Compound 558, (5-{[[2-CARBOXY-5-PHENYL-THIOPHEN-3- YL)-(2,4-DICHLORO-BENZOYL)-AMINO]- METHYL}-THIAZOL-2-YL)-DIETHYL- AMMONIUM; CHLORIDE]	–	< 5
Cc1ccc(C(=O)N(C)c2cc(-c3ccccc3)sc2C(=O)O)c(F)c1F [Compound 280, 3-[(2,3-DIFLUORO-4-METHYL-BENZOYL)-METHYL-AMINO]-5-PHENYL-THIOPHENE-2-CARBOXYLIC ACID]	< 5	–
O=C(O)c1sc(-c2ccccc2)cc1N(C(=O)c1ccc(Cl)cc1Cl)C1CC1 [Compound 333, 3-[CYCLOPROPYL-(2,4-DICHLORO- BENZOYL)-AMINO]-5-PHENYL- THIOPHENE-2-CARBOXYLIC ACID]	< 5	–
CCCC1CCC(C(=O)N(c2cc(-c3ccccc3)sc2C(=O)O)C(C)C)CC1 (stereo not shown) [Compound 527, 3-[ISOPROPYL-(4-PROPYL- CYCLOHEXANECARBONYL)-AMINO]-5- PHENYL-THIOPHENE-2-CARBOXYLIC ACID]	–	< 5
CCC(=O)N(Cc1ccc(C)cc1)c1cc(-c2ccccc2)sc1C(=O)O [Compound 467, 3-[(4-METHYL-BENZYL)-PROPIONYL- AMINO]-5-PHENYL-THIOPHENE-2- CARBOXYLIC ACID]	–	5 to 20
CCN(C(=O)C1CCC1)c1cc(-c2ccccc2)sc1C(=O)O [Compound 393, 3-(CYCLOBUTANECARBONYL-ETHYL- AMINO)-5-PHENYL-THIOPHENE-2- CARBOXYLIC ACID]	5 to 20	–
Cc1ccccc1S(=O)(=O)Nc1cc(-c2ccc(F)c(F)c2)sc1C(=O)O [Compound 70, 5-(3,4-DIFLUORO-PHENYL)-3-(TOLUENE-2-SULFONYLAMINO)-THIOPHENE-2-CARBOXYLIC ACID]	< 5	–
CN(C(=O)c1ccc(Cl)cc1Br)c1cc(-c2ccccc2)sc1C(=O)O [Compound 284, 3-[(2-BROMO-4-CHLORO-BENZOYL)-METHYL-AMINO]-5-PHENYL-THIOPHENE-2-CARBOXYLIC ACID]	< 5	–
CC1CCC(C(=O)N(c2cc(-c3ccccc3)sc2C(=O)O)C2CCCCC2)CC1 (stereo not shown) [Compound 579, 3-[CYCLOHEXYL-(4-METHYL- CYCLOHEXANECARBONYL)-AMINO]-5- PHENYL-THIOPHENE-2-CARBOXYLIC ACID]	–	< 5
CC(C)CC(=O)N(Cc1ccc(F)cc1F)c1cc(-c2ccccc2)sc1C(=O)O [Compound 486, 3-[(2,4-DIFLUORO-BENZYL)-(3-METHYL- BUTYRYL)-AMINO]-5-PHENYL- THIOPHENE-2-CARBOXYLIC ACID]	–	5 to 20
CN(C(=O)c1ccc(Cl)c(Cl)c1)c1cc(-c2ccccc2)sc1C(=O)O [Compound 253, 3-[(3,4-DICHLORO-BENZOYL)-METHYL-AMINO]-5-PHENYL-THIOPHENE-2-CARBOXYLIC ACID]	5 to 20	–
CN(C(=O)Cc1ccccc1)c1cc(-c2ccccc2)sc1C(=O)O [Compound 175, 3-(METHYL-PHENYLACETYL-AMINO)-5-PHENYL-THIOPHENE-2-CARBOXYLIC ACID]	< 5	–
Cc1cc(S(=O)(=O)N(Cc2cccc(-c3cc4ccccc4o3)c2)c2cc(-c3ccccc3)sc2C(=O)O)c(C)cc1Cl [Compound 2, 3-[(3-BENZOFURAN-2-YL-BENZYL)-(4-CHLORO-2,5-DIMETHYL-BENZENESULFONYL)-AMINO]-5-PHENYL-THIOPHENE-2-CARBOXYLIC ACID]	5 to 20	–
Cc1ccc(C(=O)N(C)c2cc(-c3cccc(Cl)c3)sc2C(=O)O)cc1 [Compound 269, 5-(3-CHLORO-PHENYL)-3-[METHYL-(4-METHYL-BENZOYL)-AMINO]-THIOPHENE-2-CARBOXYLIC ACID]	< 5	–
CC(=O)c1ccc(-c2cc(NS(=O)(=O)c3ccc(C)cc3C)c(C(=O)O)s2)cc1 [Compound 236, 5-(4-ACETYL-PHENYL)-3-(2,4-DIMETHYL-BENZENESULFONYLAMINO)-THIOPHENE-2-CARBOXYLIC ACID]	< 5	–
Cc1ccc(C(=O)N(C)c2cc(-c3ccc(F)cc3)sc2C(=O)O)cc1 [Compound 197, 5-(4-FLUORO-PHENYL)-3-[METHYL-(4-METHYL-BENZOYL)-AMINO]-THIOPHENE-2-CARBOXYLIC ACID]	< 5	–
Cc1ccc(CN(C(=O)C2CC2)c2cc(-c3ccccc3)sc2C(=O)O)cc1 [Compound 469, 3-[CYCLOPROPANECARBONYL-(4- METHYL-BENZYL)-AMINO]-5-PHENYL- THIOPHENE-2-CARBOXYLIC ACID]	–	5 to 20
CCN(C(=O)CCC(C)C)c1cc(-c2ccccc2)sc1C(=O)O [Compound 494, 3-[ETHYL-(4-METHYL-PENTANOYL)- AMINO]-5-PHENYL-THIOPHENE-2- CARBOXYLIC ACID]	–	< 5
